Compound | melting point
CCc1cc(SC(C)(C)c2cccc3cn(-c4ccc(C(F)(F)F)cc4)nc23)ccc1OCC(=O)O [Example 16, 2-Ethyl-4-{1-methyl-1-[2-(4-trifluoromethylphenyl)-2H-indazol-7-yl]ethylsulfanyl}phenoxyacetic Acid] | 114 to 116 °C
CC(C)(Sc1ccc2c(CC(=O)O)csc2c1)c1cccc2cn(-c3ccc(C(F)(F)F)cc3)nc12 [Example 17, 6-{1-Methyl-1-[2-(4-trifluoromethylphenyl)-2H-indazol-7-yl]ethylsulfanyl}benzo[b]thiophen-3-ylacetic Acid] | 120 to 122 °C
CC(C)(Oc1ccc(SCc2cccc3cnn(-c4ccc(C(F)(F)F)cc4)c23)cc1)C(=O)O [Example 99, 2-Methyl-2-{4-[1-(4-trifluoromethylphenyl)-1H-indazol-7-ylmethylsulfanyl]phenoxy}propionic Acid] | 125 to 128 °C
Cc1cc(SCc2cccc3cnn(-c4ccc(C(F)(F)F)cc4)c23)ccc1OCC(=O)O [Example 34, 2-Methyl-4-[1-(4-trifluoromethylphenyl)-1H-indazol-7-ylmethylsulfanyl]phenoxyacetic Acid] | 118 to 121 °C
CC(C)(Sc1ccc(OCc2cccc3cn(-c4ccc(C(F)(F)F)cc4)nc23)cc1)C(=O)O [Example 38, 2-Methyl-2-{4-[2-(4-trifluoromethylphenyl)-2H-indazol-7-ylmethoxy]phenylsulfanyl}propionic Acid] | 175 to 177 °C
Cc1cc(OC(CCC(F)(F)F)c2cccc3c2cnn3-c2ccc(C(F)(F)F)cc2)ccc1OC(C)(C)C(=O)O (racemic) [Example 87, (+/−)-2-Methyl-2-(2-methyl-4-{4,4,4-trifluoro-1-[1-(4-trifluoromethylphenyl)-1H-indazol-4-yl]butoxy}phenoxy)propionic Acid] | 218 to 222 °C
Cc1cc(SC(C)c2cccc3cn(-c4ccc(C(F)(F)F)cc4)nc23)ccc1CCC(=O)O (racemic) [Example 9, (+/−)-3-(2-Methyl-4-{1-[2-(4-trifluoromethylphenyl)-2H-indazol-7-yl]ethylsulfanyl}phenyl)propionic Acid] | 59 to 61 °C
CCc1cc(SC(C)c2cccc3cn(-c4ccc(C(F)(F)F)cc4)nc23)ccc1OCC(=O)O (racemic) [Example 10, (+/−)-2-Ethyl-4-{1-[2-(4-trifluoromethylphenyl)-2H-indazol-7-yl]ethylsulfanyl}phenoxyacetic Acid] | 65 to 67 °C
Cc1cc(SC(C)(C)c2cccc3cn(-c4ccc(C(F)(F)F)cc4)nc23)ccc1CCC(=O)O [Example 15, 3-(2-Methyl-4-{1-methyl-1-[2-(4-trifluoromethylphenyl)-2H-indazol-7-yl]ethylsulfanyl}phenyl)propionic Acid] | 68 to 70 °C
CC(C)(Oc1ccc(OCc2cccc3cnn(-c4ccc(C(F)(F)F)cc4)c23)cc1)C(=O)O [Example 100, 2-Methyl-1-2-{4-[1-(4-trifluoromethylphenyl)-1H-indazol-7-ylmethoxy]phenoxy}propionic Acid] | 146 to 149 °C
O=C(O)Cc1csc2cc(OCc3ccc4cn(-c5ccc(C(F)(F)F)cc5)nc4c3)ccc12 [Example 25, {6-[2-(4-Trifluoromethylphenyl)-2H-indazol-6-ylmethoxy]benzo[b]thiophen-3-yl}acetic Acid] | 240 to 242 °C
CCc1cc(OCc2ccc3cn(-c4ccc(C(F)(F)F)cc4)nc3c2)ccc1CCC(=O)O [Example 22, 3-{2-Ethyl-4-[2-(4-trifluoromethylphenyl)-2H-indazol-6-ylmethoxy]phenyl}propionic Acid] | 190 to 192 °C
Cc1cc(SC(C)c2cccc3cn(-c4ccc(C(F)(F)F)cc4)nc23)ccc1OCC(=O)O (racemic) [Example 8, (+/−)-2-Methyl-4-{1-[2-(4-trifluoromethylphenyl)-2H-indazol-7-yl]ethylsulfanyl}phenoxyacetic Acid] | 62 to 64 °C
Cc1cc(SC(c2ccccc2)c2cccc3c2cnn3-c2ccc(C(F)(F)F)cc2)ccc1OC(C)(C)C(=O)O (racemic) [Example 92, (+/−)-2-Methyl-2-(2-methyl-4-{phenyl-[1-(4-trifluoromethylphenyl)-1H-indazol-4-yl]methylsulfanyl}phenoxy)propionic Acid] | 181 to 186 °C
CC(Sc1ccc(OC(C)(C)C(=O)O)cc1)c1cccc2c1cnn2-c1ccc(C(F)(F)F)cc1 (racemic) [Example 86, (+/−)-2-Methyl-2-(4-{1-[1-(4-trifluoromethylphenyl)-1H-indazol-4-yl]ethylsulfanyl}phenoxy)propionic Acid] | 85 to 90 °C
Cc1cc(SCc2cccc3c2cnn3-c2ccc(C(F)(F)F)cc2)ccc1CCC(=O)O [Example 32, 3-{2-Methyl-4-[1-(4-trifluoromethylphenyl)-1H-indazol-4-ylmethylsulfanyl]phenyl}propionic Acid] | 113 to 115 °C
CCc1cc(SCCc2cccc3cn(-c4ccc(C(F)(F)F)cc4)nc23)ccc1OCC(=O)O [Example 45, (2-Ethyl-4-{2-[2-(4-trifluoromethylphenyl)-2H-indazol-7-yl]ethylsulfanyl}phenoxy)acetic Acid] | 115 to 117 °C

Continued, values first:

melting point | Compound
140 to 145 °C | Cc1cc(OC(c2ccccc2)c2cccc3c2cnn3-c2ccc(C(F)(F)F)cc2)ccc1OC(C)(C)C(=O)O (racemic) [Example 91, (+/−)-2-Methyl-2-(2-methyl-4-{phenyl-[1-(4-trifluoromethylphenyl)-1H-indazol-4-yl]methoxy}phenoxy)propionic Acid]
129 to 131 °C | Cc1cc(OC(C)c2ccc3nn(-c4ccc(C(F)(F)F)cc4)cc3c2)ccc1OC(C)(C)C(=O)O (racemic) [Example 66, (+/−)-2-Methyl-2-(2-methyl-4-{1-[2-(4-trifluoromethylphenyl)-2H-indazol-5-yl]ethoxy}phenoxy)propionic Acid]
142 to 144 °C | Cc1cc(SCc2ccc3cn(-c4ccc(C(F)(F)F)cc4)nc3c2)ccc1OCC(=O)O [Example 19, 2-Methyl-4-[2-(4-trifluoromethylphenyl)-2H-indazol-6-ylmethylsulfanyl]phenoxyacetic Acid]
165 to 167 °C | Cc1cc(OCc2cccc3cn(-c4ccc(C(F)(F)F)cc4)nc23)ccc1OC(C)(C)C(=O)O [Example 37, 2-Methyl-2-{2-methyl-4-[2-(4-trifluoromethylphenyl)-2H-indazol-7-ylmethoxy]phenoxy}propionic Acid]
109 to 111 °C | CC(Sc1ccc(OC(C)(C)C(=O)O)cc1)c1ccc2nn(-c3ccc(C(F)(F)F)cc3)cc2c1 (racemic) [Example 68, (+/−)-2-Methyl-2-(4-{1-[2-(4-trifluoromethylphenyl)-2H-indazol-5-yl]ethylsulfanyl}phenoxy)propionic Acid]
153 to 155 °C | Cc1cc(SC(C)c2cccc3nn(-c4ccc(C(F)(F)F)cc4)cc23)ccc1OC(C)(C)C(=O)O (racemic) [Example 72, (+/−)-2-Methyl-2-(2-methyl-4-{1-[2-(4-trifluoromethylphenyl)-2H-indazol-4-yl]ethylsulfanyl}phenoxy)propionic Acid]
86 to 88 °C | CC(Oc1ccc(OC(C)(C)C(=O)O)cc1)c1cccc2nn(-c3ccc(C(F)(F)F)cc3)cc12 (racemic) [Example 75, (+/−)-2-Methyl-2-(4-{1-[2-(4-trifluoromethylphenyl)-2H-indazol-4-yl]ethoxy}phenoxy)propionic Acid]
82 to 85 °C | Cc1cc(OC(C)c2cccc3c2cnn3-c2ccc(C(F)(F)F)cc2)ccc1OC(C)(C)C(=O)O (racemic) [Example 82, (+/−)-2-Methyl-2-(2-methyl-4-{1-[1-(4-trifluoromethylphenyl)-1H-indazol-4-yl]ethoxy}phenoxy)propionic Acid]
62 to 66 °C | Cc1cc(SCc2cccc3c2cnn3-c2ccc(C(F)(F)F)cc2)ccc1OC(C)(C)C(=O)O [Example 78, 2-Methyl-2-{2-methyl-4-[1-(4-trifluoromethylphenyl)-1H-indazol-4-ylmethylsufanyl]phenoxy}propionic Acid]
122 to 124 °C | CC(C)(Oc1ccc(OCCc2cccc3cn(-c4ccc(C(F)(F)F)cc4)nc23)cc1)C(=O)O [Example 47, 2-Methyl-2-(4-{2-[2-(4-trifluoromethylphenyl)-2H-indazol-7-yl]ethoxy}phenoxy)propionic Acid]
125 to 127 °C | Cc1cc(SCc2cccc3nn(-c4ccc(C(F)(F)F)cc4)cc23)ccc1OC(C)(C)C(=O)O [Example 71, 2-Methyl-2-{2-methyl-4-[2-(4-trifluoromethylphenyl)-2H-indazol-4-ylmethylsulfanyl]phenoxy}propionic Acid]

Source: patent publication US7544707B2, “Bicyclic derivatives as PPAR modulators” (Eli Lilly and Company, priority 2003, dated 2009)
